In ChEMBL document CHEMBL1201862, “PubChem BioAssay data set” (2004):
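These data come from cells grown in 96-well plates and exposed to compound for 48 hours at five concentrations. GI50: concentration for 50% inhibition of growth.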 The source made the active and inactive calls. No stated cut-off is given here; in the data, active = GI50 up to about 1.1 µM and inactive = higher.

Legend:
Test in all cases: DTP human tumour cell line panel, 48 h
CAKI-1 = tested on: CAKI-1
CCRF-CEM = tested on: CCRF-CEM
COLO 205 = tested on: COLO 205
HCT-116 = tested on: HCT-116
KM12 = tested on: KM12
MCF7 = tested on: MCF7
MDA-MB-231 = tested on: MDA-MB-231
MOLT-4 = tested on: MOLT-4
NCI-H460 = tested on: NCI-H460
NCI-H522 = tested on: NCI-H522
OVCAR-4 = tested on: OVCAR-4
OVCAR-5 = tested on: OVCAR-5
PC-3 = tested on: PC-3
RXF 393 = tested on: RXF 393
SNB-75 = tested on: SNB-75
TK-10 = tested on: TK-10
U-251 = tested on: U-251
UACC-62 = tested on: UACC-62
UO-31 = tested on: UO-31
LOX IMVI = tested on: LOX IMVI

SMILES | GI50 (CAKI-1) | GI50 (CCRF-CEM) | GI50 (COLO 205) | GI50 (HCT-116) | GI50 (KM12) | GI50 (MCF7) | GI50 (MDA-MB-231) | GI50 (MOLT-4) | GI50 (NCI-H460) | GI50 (NCI-H522) | GI50 (OVCAR-4) | GI50 (OVCAR-5) | GI50 (PC-3) | GI50 (RXF 393) | GI50 (SNB-75) | GI50 (TK-10) | GI50 (U-251) | GI50 (UACC-62) | GI50 (UO-31) | GI50 (LOX IMVI)
O=C1Oc2ccccc2N/C1=C/C(=O)c1ccc(Cl)cc1 | > 100 µM (inactive) | 7.96 µM (inactive) | > 100 µM (inactive) | 62.5 µM (inactive) | > 100 µM (inactive) | 41.7 µM (inactive) | > 100 µM (inactive) | > 100 µM (inactive) | > 100 µM (inactive) | 38.1 µM (inactive) | > 100 µM (inactive) | > 100 µM (inactive) | 28.1 µM (inactive) | > 100 µM (inactive) | > 100 µM (inactive) | > 100 µM (inactive) | > 100 µM (inactive) | 32.4 µM (inactive) | 73.5 µM (inactive) | 
CNC(=O)Oc1ccc(-c2cn3cc(OC(=O)NC)ccc3n2)cc1 | 34.1 µM (inactive) | 17.9 µM (inactive) | 41.4 µM (inactive) | 33.1 µM (inactive) | 44 µM (inactive) | 32.4 µM (inactive) | > 100 µM (inactive) | 20.5 µM (inactive) | 39.4 µM (inactive) |  | 51.1 µM (inactive) | > 100 µM (inactive) | 49.9 µM (inactive) | 60 µM (inactive) | 62.4 µM (inactive) | 91.6 µM (inactive) | 36.9 µM (inactive) | 28.4 µM (inactive) | 26.5 µM (inactive) | 34.3 µM (inactive)
CC(=O)OC1CC[C@@]2(C)C(=CC[C@@H]3[C@@H]2CC[C@]2(C)Nc4nn(S(C)(=O)=O)cc4C[C@@H]32)C1 (stereo not given in full) | 40.1 µM (inactive) | 10.6 µM (inactive) | 35.7 µM (inactive) |  | 31.8 µM (inactive) | 16.6 µM (inactive) | 31 µM (inactive) | 16.1 µM (inactive) | 18.7 µM (inactive) | 35.2 µM (inactive) |  | 37.9 µM (inactive) | 28.2 µM (inactive) | 18.6 µM (inactive) | 24.2 µM (inactive) |  | 36.1 µM (inactive) | 21.8 µM (inactive) | 37 µM (inactive) | 
Cn1c(-c2ccccc2)cc(-c2cccs2)c1-c1ccsc1 | > 100 µM (inactive) | > 100 µM (inactive) | > 100 µM (inactive) | 61.5 µM (inactive) | 80.5 µM (inactive) | 47.4 µM (inactive) | > 100 µM (inactive) | > 100 µM (inactive) | > 100 µM (inactive) |  | > 100 µM (inactive) | > 100 µM (inactive) | > 100 µM (inactive) | > 100 µM (inactive) | > 100 µM (inactive) | > 100 µM (inactive) | > 100 µM (inactive) | > 100 µM (inactive) | > 100 µM (inactive) | > 100 µM (inactive)
CC(C)(C)c1cc(C(CO)OCCOCCO)cc(C(C)(C)C)c1O (stereo not given) | > 100 µM (inactive) | > 100 µM (inactive) | > 100 µM (inactive) | > 100 µM (inactive) | > 100 µM (inactive) | > 100 µM (inactive) | > 100 µM (inactive) |  |  | > 100 µM (inactive) | > 100 µM (inactive) | > 100 µM (inactive) | > 100 µM (inactive) | > 100 µM (inactive) | > 100 µM (inactive) | > 100 µM (inactive) | > 100 µM (inactive) | > 100 µM (inactive) | > 100 µM (inactive) | > 100 µM (inactive)
COC1(OC)C2C=CC1C([C@](C)(N)CO)C2 (stereo not given in full) | > 100 µM (inactive) | > 100 µM (inactive) | > 100 µM (inactive) | > 100 µM (inactive) | > 100 µM (inactive) | > 100 µM (inactive) | > 100 µM (inactive) | > 100 µM (inactive) | > 100 µM (inactive) | > 100 µM (inactive) | > 100 µM (inactive) | > 100 µM (inactive) | > 100 µM (inactive) | > 100 µM (inactive) | > 100 µM (inactive) | > 100 µM (inactive) | > 100 µM (inactive) | > 100 µM (inactive) | > 100 µM (inactive) | 
CCOP1(=O)CC(C)=C(Cl)C(OC)C1 (stereo not given) | > 100 µM (inactive) | 30.1 µM (inactive) | > 100 µM (inactive) | > 100 µM (inactive) | > 100 µM (inactive) | > 100 µM (inactive) | > 100 µM (inactive) | > 100 µM (inactive) | > 100 µM (inactive) | 34 µM (inactive) | > 100 µM (inactive) | > 100 µM (inactive) | > 100 µM (inactive) | > 100 µM (inactive) | > 100 µM (inactive) | > 100 µM (inactive) | > 100 µM (inactive) | > 100 µM (inactive) |  | 61.7 µM (inactive)
O=C(/N=N/c1cc(Cl)ccc1Cl)NNc1cc(Cl)ccc1Cl | 16 µM (inactive) | 13.6 µM (inactive) | 21.8 µM (inactive) | 18.6 µM (inactive) | 16.7 µM (inactive) | 18.4 µM (inactive) | 15.7 µM (inactive) | > 10 µM (inactive) | 17.3 µM (inactive) | 13.2 µM (inactive) |  | 17.6 µM (inactive) | 10.9 µM (inactive) | 11.1 µM (inactive) | 28.4 µM (inactive) |  | 16.7 µM (inactive) | 11.2 µM (inactive) | 11.7 µM (inactive) | 
Cc1ccc(C(=O)N/N=C(\N=N\c2cccc(C)c2)c2ccc(N(CCC#N)CCC#N)cc2C)cc1 | > 100 µM (inactive) | 59.8 µM (inactive) | > 100 µM (inactive) |  | 31.8 µM (inactive) | 67.5 µM (inactive) | > 100 µM (inactive) | 38.9 µM (inactive) | 52.7 µM (inactive) |  | > 100 µM (inactive) | > 100 µM (inactive) | 58.3 µM (inactive) | 89.1 µM (inactive) | 47.5 µM (inactive) | > 100 µM (inactive) | 47 µM (inactive) | 57.1 µM (inactive) | > 100 µM (inactive) | 88.9 µM (inactive)
CCOC(=O)c1cnc(N(C)C)nc1SC(=N)N | > 100 µM (inactive) |  | > 100 µM (inactive) | > 100 µM (inactive) | > 100 µM (inactive) | > 100 µM (inactive) | > 100 µM (inactive) | 49.2 µM (inactive) | > 100 µM (inactive) | > 100 µM (inactive) | > 100 µM (inactive) | > 100 µM (inactive) | > 100 µM (inactive) | > 100 µM (inactive) | > 100 µM (inactive) | > 100 µM (inactive) | > 100 µM (inactive) | > 100 µM (inactive) |  | > 100 µM (inactive)
CCOC(=O)NC(Nc1ccc(C(=O)O)cc1)(C(F)(F)F)C(F)(F)F | > 100 µM (inactive) | > 100 µM (inactive) | > 100 µM (inactive) | > 100 µM (inactive) | > 100 µM (inactive) | > 100 µM (inactive) | > 100 µM (inactive) | > 100 µM (inactive) | > 100 µM (inactive) | > 100 µM (inactive) |  | > 100 µM (inactive) | > 100 µM (inactive) | 60.8 µM (inactive) | > 100 µM (inactive) | > 100 µM (inactive) | > 100 µM (inactive) | > 100 µM (inactive) | > 100 µM (inactive) | > 100 µM (inactive)
O=C1c2ccccc2-c2nc(/C=C/c3ccccc3)cc3c2c1nc1ccccc13 | 26 µM (inactive) | 24.4 µM (inactive) | 20.5 µM (inactive) | 17.4 µM (inactive) | 18.5 µM (inactive) | 19.1 µM (inactive) | 24.4 µM (inactive) | 23.6 µM (inactive) |  | 10.3 µM (inactive) | 68.7 µM (inactive) | > 100 µM (inactive) | 4.56 µM (inactive) | 29.2 µM (inactive) | 17.8 µM (inactive) | 81.8 µM (inactive) | 17.7 µM (inactive) | 9.82 µM (inactive) | 29.6 µM (inactive) | 
O=NN1CCNC1Cc1ccccc1 (stereo not given) |  | 31.8 µM (inactive) | > 100 µM (inactive) | 71.6 µM (inactive) | > 100 µM (inactive) | 37.2 µM (inactive) | > 100 µM (inactive) | 27 µM (inactive) | 38.7 µM (inactive) | 85.5 µM (inactive) | > 100 µM (inactive) | > 100 µM (inactive) | > 100 µM (inactive) | 88.7 µM (inactive) | 18.3 µM (inactive) | > 100 µM (inactive) | 33.3 µM (inactive) | 46.8 µM (inactive) | 43.7 µM (inactive) | > 100 µM (inactive)
CCCCCCCCCC[C@@H](O)[C@@H]1CC[C@@H]([C@@H]2CC[C@@H]([C@@H](O)CCCCCCCCCCC(O)CC3=CC(C)OC3=O)O2)O1 (stereo not given in full) |  | 2.47 µM (inactive) | > 10 µM (inactive) | 0.551 µM (active) | 3.53 µM (inactive) | 1.36 µM (inactive) | 2.32 µM (inactive) | 1.26 µM (inactive) | 1.28 µM (inactive) | 0.177 µM (active) | 1.38 µM (inactive) | 0.128 µM (active) | 5.04 µM (inactive) | 2.69 µM (inactive) | > 10 µM (inactive) | > 10 µM (inactive) |  | 3.79 µM (inactive) | 0.562 µM (active) | 1.05 µM (active)
OC[C@H]1CCCC1O (stereo not given in full) | > 100 µM (inactive) | > 100 µM (inactive) | > 100 µM (inactive) | > 100 µM (inactive) | > 100 µM (inactive) | > 100 µM (inactive) | > 100 µM (inactive) | > 100 µM (inactive) | > 100 µM (inactive) | > 100 µM (inactive) | > 100 µM (inactive) | > 100 µM (inactive) | > 100 µM (inactive) | > 100 µM (inactive) | 73.1 µM (inactive) | > 100 µM (inactive) | > 100 µM (inactive) | > 100 µM (inactive) | > 100 µM (inactive) | 
